According to the NIST ThermoML archive (doi:10.1021/acs.jced.6b00269):

Conditions: for viscosity / mass density: 101.33 kPa, Liquid; for viscosity: Cone and plate viscometry; for mass density: Vibrating tube method; for Glass transition temperature: DSC; for Normal melting temperature: Crystal, DTA

CCCCCCCCCCCCCC[P+](CCCCCC)(CCCCCC)CCCCCC.Cc1ncc([N+](=O)[O-])[n-]1 [trihexyl(tetradecyl)phosphonium 2-methyl-5-nitroimidazolide]
Conditions	Glass transition temperature [°C]	mass density [kg/m3]	viscosity [mPa·s]
–	-79	–	–
278.15 K	–	–	5890
283.15 K	–	948.1	3730
288.15 K	–	945.1	2420
293.15 K	–	941.9	1620
295.15 K	–	940.6	–
298.15 K	–	938.7	1110
303.15 K	–	935.7	786
308.15 K	–	932.8	569
313.15 K	–	929.8	420
318.15 K	–	926.9	317
323.15 K	–	924	244
328.15 K	–	921.1	192
333.15 K	–	918.2	153
338.15 K	–	915.3	125
343.15 K	–	912.5	–
348.15 K	–	909.6	–
353.15 K	–	906.8	–

CCCCCCCCCCCCCC[P+](CCCCCC)(CCCCCC)CCCCCC.O=S(=O)([N-]S(=O)(=O)C(F)(F)F)C(F)(F)F
Conditions	Glass transition temperature [°C]	mass density [kg/m3]	viscosity [mPa·s]
–	-82	–	–
278.15 K	–	–	1210
283.15 K	–	1076.1	841
288.15 K	–	1072.4	594
293.15 K	–	1068.8	430
295.15 K	–	1067.3	–
298.15 K	–	1065.1	318
303.15 K	–	1061.5	241
308.15 K	–	1057.9	185
313.15 K	–	1054.4	145
318.15 K	–	1050.8	115
323.15 K	–	1047.3	92
328.15 K	–	1043.7	76
333.15 K	–	1040.1	63
338.15 K	–	1036.6	–
343.15 K	–	1033	–
348.15 K	–	1029.5	–
353.15 K	–	1026	–

CCCCCCn1cc[n+](C)c1C.O=[N+]([O-])c1cn[n-]c1 [1-hexyl-2,3-dimethylimidazolium 4-nitropyrazolide]
Conditions	Glass transition temperature [°C]	mass density [kg/m3]	viscosity [mPa·s]
–	-47	–	–
278.15 K	–	–	14600
283.15 K	–	1129.4	6910
288.15 K	–	1126	3490
293.15 K	–	1122.4	1910
295.15 K	–	1121	–
298.15 K	–	1118.9	1110
303.15 K	–	1115.7	691
308.15 K	–	1112.4	450
313.15 K	–	1109.2	303
318.15 K	–	1106	213
323.15 K	–	1102.8	147
328.15 K	–	1099.7	112
333.15 K	–	1096.6	87
338.15 K	–	1093.5	69
343.15 K	–	1090.4	56
348.15 K	–	1087.4	–
353.15 K	–	1084.3	–

CCCCCCCC[P+](CC)(CC)CC.O=S(=O)([N-]S(=O)(=O)C(F)(F)F)C(F)(F)F [triethyloctylphosphonium bis(trifluoromethylsulfonyl)imide]
Conditions	mass density [kg/m3]	viscosity [mPa·s]
278.15 K	–	379
283.15 K	1256.3	268
288.15 K	1252.2	194
293.15 K	1248.1	145
295.15 K	1246.6	–
298.15 K	1244.2	111
303.15 K	1240.2	87
308.15 K	1236.2	73
313.15 K	1232.2	57
318.15 K	1228.2	–
323.15 K	1224.2	–
328.15 K	1220.2	–
333.15 K	1216.3	–
338.15 K	1212.3	–
343.15 K	1208.4	–
348.15 K	1204.4	–
353.15 K	1200.5	–

CCCCCCCCCCCCCC[P+](CCCCCC)(CCCCCC)CCCCCC.O=[N+]([O-])c1c[n-]cn1 [trihexyl(tetradecyl)phosphonium 4-nitroimidazolide]
Conditions	Glass transition temperature [°C]	mass density [kg/m3]	viscosity [mPa·s]
–	-66	–	–
278.15 K	–	–	3380
283.15 K	–	949.4	2220
288.15 K	–	946.3	1500
293.15 K	–	943.1	1040
295.15 K	–	941.8	–
298.15 K	–	940.1	735
303.15 K	–	937.1	533
308.15 K	–	934.2	396
313.15 K	–	931.3	298
318.15 K	–	928.4	230
323.15 K	–	925.4	180
328.15 K	–	922.6	144
333.15 K	–	919.7	117
338.15 K	–	916.9	96
343.15 K	–	914	80
348.15 K	–	911.2	–
353.15 K	–	908.3	–

CC[P+](CC)(CC)COCCOC.Cc1ncc([N+](=O)[O-])[n-]1
Conditions	Glass transition temperature [°C]	viscosity [mPa·s]
–	-75	–
278.15 K	–	567
283.15 K	–	381
288.15 K	–	264
293.15 K	–	189
298.15 K	–	140
303.15 K	–	106
308.15 K	–	83
313.15 K	–	65
318.15 K	–	53

CCCCCCCC[P+](CC)(CC)CC.Cc1ncc([N+](=O)[O-])[n-]1 [triethyloctylphosphonium 2-methyl-5-nitroimidazolide]
Conditions	Glass transition temperature [°C]	mass density [kg/m3]	viscosity [mPa·s]
–	-67	–	–
278.15 K	–	–	3720
283.15 K	–	1037.8	2280
288.15 K	–	1034.6	1440
293.15 K	–	1031.5	940
295.15 K	–	1030.3	–
298.15 K	–	1028.6	637
303.15 K	–	1025.6	446
308.15 K	–	1022.7	321
313.15 K	–	1019.8	237
318.15 K	–	1016.9	179
323.15 K	–	1014.1	138
328.15 K	–	1011.2	109
333.15 K	–	1008.4	80
338.15 K	–	1005.6	–
343.15 K	–	1002.7	–
348.15 K	–	999.9	–
353.15 K	–	997.1	–

CCC[n+]1ccn(C)c1C.O=[N+]([O-])c1cn[n-]c1 [1,2-dimethyl-3-propylimidazolium 4-nitropyrazolide]
Conditions	Glass transition temperature [°C]	mass density [kg/m3]	viscosity [mPa·s]
–	-50	–	–
278.15 K	–	–	9610
283.15 K	–	1193	4500
288.15 K	–	1189.4	2270
293.15 K	–	1185.6	1240
295.15 K	–	1184.3	–
298.15 K	–	1182.2	722
303.15 K	–	1178.9	447
308.15 K	–	1175.5	294
313.15 K	–	1172.2	200
318.15 K	–	1168.9	143
323.15 K	–	1165.7	106
328.15 K	–	1162.5	81
333.15 K	–	1159.3	65
338.15 K	–	1156.1	53
343.15 K	–	1152.8	–
348.15 K	–	1149.6	–
353.15 K	–	1146.4	–

CC[P+](CC)(CC)C1CCCC1.O=[N+]([O-])c1cn[n-]c1 [cyclopentyltriethylphosphonium 4-nitropyrazolide]
Conditions	Normal melting temperature [°C]
–	51

Cc1n(C2CCCC2)cc[n+]1C.O=[N+]([O-])c1cn[n-]c1 [1-cyclopentyl-2,3-dimethylimidazolium 4-nitropyrazolide]
Conditions	Normal melting temperature [°C]
–	92

CCCCCCCCCCCCCC[P+](CCCCCC)(CCCCCC)CCCCCC.N#Cc1nc[n-]c1C#N [trihexyl(tetradecyl)phosphonium 4,5-dicyanoimidazolide]
Conditions	Glass transition temperature [°C]	mass density [kg/m3]	viscosity [mPa·s]
–	-78	–	–
278.15 K	–	–	2490
283.15 K	–	928.9	1630
288.15 K	–	925.7	1090
293.15 K	–	922.6	754
295.15 K	–	921.5	–
298.15 K	–	919.7	535
303.15 K	–	916.8	391
308.15 K	–	913.9	291
313.15 K	–	911	220
318.15 K	–	908.1	171
323.15 K	–	905.2	135
328.15 K	–	902.4	108
333.15 K	–	899.6	88
338.15 K	–	896.7	73
343.15 K	–	893.9	–
348.15 K	–	891	–
353.15 K	–	888.2	–

CCCCCCCC[P+](CC)(CC)CC.O=[N+]([O-])c1cn[n-]c1 [triethyloctylphosphonium 4-nitropyrazolide]
Conditions	Glass transition temperature [°C]	Normal melting temperature [°C]	mass density [kg/m3]	viscosity [mPa·s]
–	-72	5	–	–
278.15 K	–	–	–	1100
283.15 K	–	–	1040.1	716
288.15 K	–	–	1037	480
293.15 K	–	–	1033.9	333
295.15 K	–	–	1032.7	–
298.15 K	–	–	1030.9	238
303.15 K	–	–	1027.9	175
308.15 K	–	–	1024.9	133
313.15 K	–	–	1022	103
318.15 K	–	–	1019	81
323.15 K	–	–	1016.1	65
328.15 K	–	–	1013.2	53
333.15 K	–	–	1010.2	–
338.15 K	–	–	1007.3	–
343.15 K	–	–	1004.4	–
348.15 K	–	–	1001.5	–
353.15 K	–	–	998.6	–

CCCCCCC[P+](CC)(CC)CC.O=[N+]([O-])c1cn[n-]c1 [triethylheptylphosphonium 4-nitropyrazolide]
Conditions	Glass transition temperature [°C]	Normal melting temperature [°C]	mass density [kg/m3]	viscosity [mPa·s]
–	-72	16	–	–
278.15 K	–	–	–	1000
283.15 K	–	–	1047.1	657
288.15 K	–	–	1044	443
293.15 K	–	–	1040.9	309
295.15 K	–	–	1039.7	–
298.15 K	–	–	1037.8	223
303.15 K	–	–	1034.8	165
308.15 K	–	–	1031.8	126
313.15 K	–	–	1028.8	97
318.15 K	–	–	1026	77
323.15 K	–	–	1023.1	62
328.15 K	–	–	1020.2	–
333.15 K	–	–	1017.3	–
338.15 K	–	–	1014.5	–
343.15 K	–	–	1011.6	–
348.15 K	–	–	1008.8	–
353.15 K	–	–	1006	–

CCCCCCCCSC(N(C)C)=[N+](C)C.O=S(=O)([N-]S(=O)(=O)C(F)(F)F)C(F)(F)F
Conditions	Glass transition temperature [°C]	mass density [kg/m3]	viscosity [mPa·s]
–	-82	–	–
278.15 K	–	–	356
283.15 K	–	1309.6	254
288.15 K	–	1305.2	186
293.15 K	–	1301	140
295.15 K	–	1299.3	–
298.15 K	–	1296.7	108
303.15 K	–	1292.4	85
308.15 K	–	1288.2	69
313.15 K	–	1284	56
318.15 K	–	1279.7	–
323.15 K	–	1275.5	–
328.15 K	–	1271.3	–
333.15 K	–	1267.1	–
338.15 K	–	1262.9	–
343.15 K	–	1258.7	–
348.15 K	–	1254.6	–
353.15 K	–	1250.4	–

CCCC[S+]1CCCC1.O=S(=O)([N-]S(=O)(=O)C(F)(F)F)C(F)(F)F
Conditions	Glass transition temperature [°C]	mass density [kg/m3]	viscosity [mPa·s]
–	-83	–	–
278.15 K	–	–	284
283.15 K	–	1469	206
288.15 K	–	1464.3	153
293.15 K	–	1459.7	117
295.15 K	–	1457.8	–
298.15 K	–	1455	91
303.15 K	–	1450.4	73
308.15 K	–	1445.7	59
313.15 K	–	1441.1	–
318.15 K	–	1436.5	–
323.15 K	–	1431.9	–
328.15 K	–	1427.3	–
333.15 K	–	1422.7	–
338.15 K	–	1418.2	–
343.15 K	–	1413.6	–
348.15 K	–	1409.1	–
353.15 K	–	1404.6	–

CCC=C[P+](CC)(CC)CC.O=S(=O)([N-]S(=O)(=O)C(F)(F)F)C(F)(F)F
Conditions	Normal melting temperature [°C]
–	49

CCCC[P+](CC)(CC)CC.O=[N+]([O-])c1cn[n-]c1 [butyltriethylphosphonium 4-nitropyrazolide]
Conditions	Normal melting temperature [°C]	mass density [kg/m3]	viscosity [mPa·s]
–	44	–	–
278.15 K	–	–	840
283.15 K	–	1087.9	551
288.15 K	–	1084.7	372
293.15 K	–	1081.5	261
295.15 K	–	1080.3	–
298.15 K	–	1078.4	189
303.15 K	–	1075.4	141
308.15 K	–	1072.4	108
313.15 K	–	1069.3	85
318.15 K	–	1066.3	67
323.15 K	–	1063.3	55
328.15 K	–	1060.3	–
333.15 K	–	1057.3	–
338.15 K	–	1054.3	–
343.15 K	–	1051.3	–
348.15 K	–	1048.4	–
353.15 K	–	1045.4	–
